Experiments:
rodent = conditions: in vivo; cited from earlier work
[1] = tested on: mRNA expressed from the genes (A) to (D) in rat liver; test: Behavior of genes (mRNA expression level, oligo-DNA microarray) in rat liver after 28-day oral administration; type: in vivo
Outline: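 Liver mRNA levels were compared with matched vehicle groups, with a shift of at least 1.5-fold up or down deemed significant unless its direction disagreed with other carcinogens. Test substances were dosed orally by gavage daily for 28 days to 5-week-old male F344 rats, four per group.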

liver = conditions: in vivo; cited from earlier work
[2] = (A), Unigene Rn.144554, defined direction +, rat liver, oral once daily 28 days
[3] = (A), Unigene Rn.167075, defined direction +, rat liver, oral once daily 28 days, significant = 1.5 times or more or 1/1.5 or less of control
[4] = (A), Unigene Rn.167075, defined direction −, rat liver, oral once daily 28 days
[5] = (A), Unigene Rn.5834, defined direction +, rat liver, oral once daily 28 days
[6] = (A), Unigene Rn.9836, defined direction +, rat liver, oral once daily 28 days
[7] = (B), Unigene Rn.1430, defined direction −, rat liver, oral once daily 28 days
[8] = (B), Unigene Rn.19329, defined direction +, rat liver, oral once daily 28 days
[9] = (B), Unigene Rn.21240, defined direction +, rat liver, oral once daily 28 days
[10] = (C), Unigene Rn.106184, defined direction +, rat liver, oral once daily 28 days
[11] = (C), Unigene Rn.108075, defined direction −, rat liver, oral once daily 28 days
[12] = (C), Unigene Rn.11766, defined direction +, rat liver, oral once daily 28 days
[13] = (C), Unigene Rn.118529, defined direction −, rat liver, oral once daily 28 days
[14] = (C), Unigene Rn.119024, defined direction −, rat liver, oral once daily 28 days
[15] = (C), Unigene Rn.120914, defined direction +, rat liver, oral once daily 28 days
[16] = (C), Unigene Rn.123063, defined direction −, rat liver, oral once daily 28 days
[17] = (C), Unigene Rn.143213, defined direction −, rat liver, oral once daily 28 days
[18] = (C), Unigene Rn.144946, defined direction −, rat liver, oral once daily 28 days
[19] = (C), Unigene Rn.14744, defined direction −, rat liver, oral once daily 28 days
[20] = (C), Unigene Rn.1647, defined direction −, rat liver, oral once daily 28 days
[21] = (C), Unigene Rn.164817, defined direction +, rat liver, oral once daily 28 days
[22] = (C), Unigene Rn.167685, defined direction −, rat liver, oral once daily 28 days
[23] = (C), Unigene Rn.185941, defined direction −, rat liver, oral once daily 28 days
[24] = (C), Unigene Rn.18728, defined direction −, rat liver, oral once daily 28 days
[25] = (C), Unigene Rn.201760, defined direction +, rat liver, oral once daily 28 days
[26] = (C), Unigene Rn.23969, defined direction +, rat liver, oral once daily 28 days
[27] = (C), Unigene Rn.24561, defined direction −, rat liver, oral once daily 28 days
[28] = (C), Unigene Rn.43232, defined direction −, rat liver, oral once daily 28 days
[29] = (C), Unigene Rn.4620, defined direction +, rat liver, oral once daily 28 days
[30] = (C), Unigene Rn.9757, defined direction +, rat liver, oral once daily 28 days
[31] = (C), Unigene Rn.9779, defined direction +, rat liver, oral once daily 28 days
[32] = (C), Unigene Rn.9862, defined direction −, rat liver, oral once daily 28 days
[33] = (D), Unigene Rn.9939, defined direction −, rat liver, oral once daily 28 days

SMILES: c1ccc2ncccc2c1 [TS006, Quinoline]
- Carcinogenicity (rodent): C+
- Behavior of gene caused by administration of chemical substance, Gene No. 4846 [1, 2]: +
- Behavior of gene caused by administration of chemical substance, Gene No. 4218 [1, 3]: −
- Behavior of gene caused by administration of chemical substance, Gene No. 2026 [1, 4]: +
- Behavior of gene caused by administration of chemical substance, Gene No. 6182 [1, 5]: −
- Behavior of gene caused by administration of chemical substance, Gene No. 5600 [1, 6]: −
- Behavior of gene caused by administration of chemical substance, Gene No. 1494 [1, 7]: +
- Behavior of gene caused by administration of chemical substance, Gene No. 2045 [1, 8]: −
- Behavior of gene caused by administration of chemical substance, Gene No. 2203 [1, 9]: −
- Behavior of gene caused by administration of chemical substance, Gene No. 533 [1, 10]: −
- Behavior of gene caused by administration of chemical substance, Gene No. 725 [1, 11]: −
- Behavior of gene caused by administration of chemical substance, Gene No. 1163 [1, 12]: −
- Behavior of gene caused by administration of chemical substance, Gene No. 4973 [1, 13]: −
- Behavior of gene caused by administration of chemical substance, Gene No. 4095 [1, 14]: −
- Behavior of gene caused by administration of chemical substance, Gene No. 1334 [1, 15]: −
- Behavior of gene caused by administration of chemical substance, Gene No. 6620 [1, 15]: −
- Behavior of gene caused by administration of chemical substance, Gene No. 6303 [1, 16]: −
- Behavior of gene caused by administration of chemical substance, Gene No. 5878 [1, 17]: −
- Behavior of gene caused by administration of chemical substance, Gene No. 1131 [1, 18]: −
- Behavior of gene caused by administration of chemical substance, Gene No. 1562 [1, 19]: −
- Behavior of gene caused by administration of chemical substance, Gene No. 1741 [1, 20]: −
- Behavior of gene caused by administration of chemical substance, Gene No. 893 [1, 21]: −
- Behavior of gene caused by administration of chemical substance, Gene No. 6026 [1, 22]: −
- Behavior of gene caused by administration of chemical substance, Gene No. 154 [1, 23]: −
- Behavior of gene caused by administration of chemical substance, Gene No. 1993 [1, 24]: −
- Behavior of gene caused by administration of chemical substance, Gene No. 813 [1, 25]: +
- Behavior of gene caused by administration of chemical substance, Gene No. 2494 [1, 26]: −
- Behavior of gene caused by administration of chemical substance, Gene No. 2546 [1, 27]: −
- Behavior of gene caused by administration of chemical substance, Gene No. 3776 [1, 28]: −
- Behavior of gene caused by administration of chemical substance, Gene No. 3929 [1, 29]: −
- Behavior of gene caused by administration of chemical substance, Gene No. 1119 [1, 30]: −
- Behavior of gene caused by administration of chemical substance, Gene No. 6742 [1, 31]: −
- Behavior of gene caused by administration of chemical substance, Gene No. 5634 [1, 32]: −
- Behavior of gene caused by administration of chemical substance, Gene No. 5726 [1, 33]: −
- Liver carcinogenicity (liver): Cr+

SMILES: Oc1cccc2cccnc12 [TS007, 8-Hydroxyquinoline]
- Carcinogenicity (rodent): C−
- Behavior of gene caused by administration of chemical substance, Gene No. 154 ([1]; rat, in vivo): −
- Behavior of gene caused by administration of chemical substance, Gene No. 533 ([1]; rat, in vivo): −
- Behavior of gene caused by administration of chemical substance, Gene No. 725 ([1]; rat, in vivo): −
- Behavior of gene caused by administration of chemical substance, Gene No. 813 ([1]; rat, in vivo): −
- Behavior of gene caused by administration of chemical substance, Gene No. 893 ([1]; rat, in vivo): −
- Behavior of gene caused by administration of chemical substance, Gene No. 1119 ([1]; rat, in vivo): −
- Behavior of gene caused by administration of chemical substance, Gene No. 1131 ([1]; rat, in vivo): −
- Behavior of gene caused by administration of chemical substance, Gene No. 1163 ([1]; rat, in vivo): −
- Behavior of gene caused by administration of chemical substance, Gene No. 1334 ([1]; rat, in vivo): −
- Behavior of gene caused by administration of chemical substance, Gene No. 1494 ([1]; rat, in vivo): −
- Behavior of gene caused by administration of chemical substance, Gene No. 1562 ([1]; rat, in vivo): −
- Behavior of gene caused by administration of chemical substance, Gene No. 1741 ([1]; rat, in vivo): −
- Behavior of gene caused by administration of chemical substance, Gene No. 1993 ([1]; rat, in vivo): −
- Behavior of gene caused by administration of chemical substance, Gene No. 2026 ([1]; rat, in vivo): −
- Behavior of gene caused by administration of chemical substance, Gene No. 2045 ([1]; rat, in vivo): −
- Behavior of gene caused by administration of chemical substance, Gene No. 2203 ([1]; rat, in vivo): −
- Behavior of gene caused by administration of chemical substance, Gene No. 2494 ([1]; rat, in vivo): −
- Behavior of gene caused by administration of chemical substance, Gene No. 2546 ([1]; rat, in vivo): −
- Behavior of gene caused by administration of chemical substance, Gene No. 3776 ([1]; rat, in vivo): −
- Behavior of gene caused by administration of chemical substance, Gene No. 3929 ([1]; rat, in vivo): −
- Behavior of gene caused by administration of chemical substance, Gene No. 4095 ([1]; rat, in vivo): −
- Behavior of gene caused by administration of chemical substance, Gene No. 4218 ([1]; rat, in vivo): −
- Behavior of gene caused by administration of chemical substance, Gene No. 4846 ([1]; rat, in vivo): −
- Behavior of gene caused by administration of chemical substance, Gene No. 4973 ([1]; rat, in vivo): −
- Behavior of gene caused by administration of chemical substance, Gene No. 5600 ([1]; rat, in vivo): −
- Behavior of gene caused by administration of chemical substance, Gene No. 5634 ([1]; rat, in vivo): −
- Behavior of gene caused by administration of chemical substance, Gene No. 5726 ([1]; rat, in vivo): +
- Behavior of gene caused by administration of chemical substance, Gene No. 5878 ([1]; rat, in vivo): −
- Behavior of gene caused by administration of chemical substance, Gene No. 6026 ([1]; rat, in vivo): −
- Behavior of gene caused by administration of chemical substance, Gene No. 6182 ([1]; rat, in vivo): −
- Behavior of gene caused by administration of chemical substance, Gene No. 6303 ([1]; rat, in vivo): −
- Behavior of gene caused by administration of chemical substance, Gene No. 6620 ([1]; rat, in vivo): −
- Behavior of gene caused by administration of chemical substance, Gene No. 6742 ([1]; rat, in vivo): −
- Liver carcinogenicity (liver): Cr−

SMILES: CCN(CC)N=O [TS011, Diethylnitrosamine]
- Carcinogenicity (rodent): C+
- Behavior of gene caused by administration of chemical substance, Gene No. 4846 [1, 2]: +
- Behavior of gene caused by administration of chemical substance, Gene No. 4218 [1, 3]: +
- Behavior of gene caused by administration of chemical substance, Gene No. 2026 [1, 4]: +
- Behavior of gene caused by administration of chemical substance, Gene No. 6182 [1, 5]: +
- Behavior of gene caused by administration of chemical substance, Gene No. 5600 [1, 6]: +
- Behavior of gene caused by administration of chemical substance, Gene No. 1494 [1, 7]: +
- Behavior of gene caused by administration of chemical substance, Gene No. 2045 [1, 8]: −
- Behavior of gene caused by administration of chemical substance, Gene No. 2203 [1, 9]: −
- Behavior of gene caused by administration of chemical substance, Gene No. 533 [1, 10]: +
- Behavior of gene caused by administration of chemical substance, Gene No. 725 [1, 11]: −
- Behavior of gene caused by administration of chemical substance, Gene No. 1163 [1, 12]: −
- Behavior of gene caused by administration of chemical substance, Gene No. 4973 [1, 13]: +
- Behavior of gene caused by administration of chemical substance, Gene No. 4095 [1, 14]: +
- Behavior of gene caused by administration of chemical substance, Gene No. 1334 [1, 15]: −
- Behavior of gene caused by administration of chemical substance, Gene No. 6620 [1, 15]: −
- Behavior of gene caused by administration of chemical substance, Gene No. 6303 [1, 16]: +
- Behavior of gene caused by administration of chemical substance, Gene No. 5878 [1, 17]: −
- Behavior of gene caused by administration of chemical substance, Gene No. 1131 [1, 18]: −
- Behavior of gene caused by administration of chemical substance, Gene No. 1562 [1, 19]: +
- Behavior of gene caused by administration of chemical substance, Gene No. 1741 [1, 20]: +
- Behavior of gene caused by administration of chemical substance, Gene No. 893 [1, 21]: +
- Behavior of gene caused by administration of chemical substance, Gene No. 6026 [1, 22]: +
- Behavior of gene caused by administration of chemical substance, Gene No. 154 [1, 23]: +
- Behavior of gene caused by administration of chemical substance, Gene No. 1993 [1, 24]: +
- Behavior of gene caused by administration of chemical substance, Gene No. 813 [1, 25]: −
- Behavior of gene caused by administration of chemical substance, Gene No. 2494 [1, 26]: +
- Behavior of gene caused by administration of chemical substance, Gene No. 2546 [1, 27]: +
- Behavior of gene caused by administration of chemical substance, Gene No. 3776 [1, 28]: −
- Behavior of gene caused by administration of chemical substance, Gene No. 3929 [1, 29]: −
- Behavior of gene caused by administration of chemical substance, Gene No. 1119 [1, 30]: −
- Behavior of gene caused by administration of chemical substance, Gene No. 6742 [1, 31]: −
- Behavior of gene caused by administration of chemical substance, Gene No. 5634 [1, 32]: −
- Behavior of gene caused by administration of chemical substance, Gene No. 5726 [1, 33]: −
- Liver carcinogenicity (liver): Cr+
